According to US20170029531A1, “INHIBITION OF LACTATE DEHYDROGENASE 5 (LDH-5) BINDING, INCORPORATION, INTERNALIZATION AND/OR ENDOCYTOSIS TO IMMUNE CELLS” (Seattle Children's Hospital (dba Seattle Children's …, priority 2014, published 2017):

How the values were obtained:
[1] = tested on: Tumor cells; experiment: LDH-5 internalization by tumor cells, flow cytometry (FIGS. 16-19); assay type: cell-based; conditions: FIG. 16
Protocol: FIG. 17. Tumor cells internalize LDH-5, which can be reduced by antibody blocking. 10 ug/ml of LDH5 specific monoclonal antibody was added to cells 1 hour prior to culture with LDH5 as described above and evaluated for internalization using flow cytometry to evaluate fluorescence.
FIG. 19. LDH-5 internalization is receptor mediated and Clathrin dependent. LDH5 internalization is reduced with receptor mediated endocytosis inhibitors.
LDH5 internalization is reduced with receptor mediated endocytosis inhibitors. This supports that internalization is mediated by a specific receptor, as opposite to bulk phagocytosis.

[2] = tested on: monocytes from healthy donors; experiment: NKG2D ligand (MICA, MICB, ULBP-1) mRNA induction in monocytes from healthy donors (MHD), qPCR; assay type: cell-based, human
From the text: FIG. 2. Biochemical purification of tumor-derived Lactate Dehydrogenase, expression in glioma cell lines and verification of LDH-mediated induction of NKG2D ligands on monocytes. (Panel A) Protein purification strategy. […] of U87 glioblastoma cell line supernatant were subjected to ammonium sulfate precipitation. Active fractions were passed over a phenyl Sepharose column and active fractions were then subjected to size exclusion (Superdex 200), followed by ion exchange (MonoS) before Mass Spectroscopy (MS) analysis. (Panel B) Following separation by chromatography, fractions were dialyzed into PBS and cultured with MHD (healthy monocytes) for 18 hours. Whole cell mRNA was reverse transcribed, and induction of MICB and ULBP-1 was analyzed relative to media alone controls. Western blot analysis using a monoclonal antibody to LDH-5 (ab101562) was performed on […] of total protein to confirm the presence of LDH-5 in the active fractions. (Panel C) mRNA isolated from PBMC of healthy donors, 293T cells (as negative controls), and U87, U251, and SF767 glioma cell lines were analyzed for expression of LDHA and LDHB by qPCR. (Panel D) A 1:10 dilution of fresh, unfrozen glioblastoma cell line supernatants was analyzed for total LDH enzymatic activity and expressed as OD 495 nm. (Panel E) Validation of LDH induction of NKG2D ligands in monocytes. Six hundred twenty five U/L of purified, native LDH-5, fresh U87 supernatant, or fresh U87 supernatant in the presence of 100 mM sodium oxamate (NaOx) were cultured with MHD. Eighteen hours later, mRNA was isolated and analyzed for MICA, MICB, and ULBP-1 by qPCR. Values represent induction relative to MHD cultured in media alone. (Panel F) Fresh U87 supernatant, 625 U/L of purified, native LDH-5, LDH-5+0.5 mM Pyruvate (Pyr), or LDH-5+0.5 mM pyruvate and 100 mM NaOx were cultured with MHD. Eighteen hours later, mRNA was isolated and analyzed for MICA, MICB and ULBP-1 by qPCR. Values represent induction relative to MHD cultured in media alone. (Panel G) MHD were cultured with native LDH-5 isolated from liver cells. Eighteen hours later, MICB (black bars) and ULBP-1 (gray bars) were measured by qPCR. (Panel H) Expression of NKG2D and NKp46 on primary human NK cells following a 12 hour incubation with LDH (50 ug/mL) or lactate (20 mM). Cells were surface stained with antibodies directed against CD3, CD56, NKG2D, and NKp46 and analyzed by flow cytometry. The expression level of NKG2D and NKp46 are plotted against CD56. (Panel I) Expression of CD107a on primary human NK cells following IL-2 (1000 U/ml) activation and a 6 hour incubation with LDH (50 ug/mL) or lactate (20 mM). Cells were surface stained with antibodies directed against CD3, CD56, and CD107a and analyzed by flow cytometry. Representative data are shown in the top panels, a summary of percent CD107a+NK cells is shown below. (Panel J) 293T cells were transiently transfected with a pcDNA3.1 (−) vector encoding either LDHA or LDHB, or both constructs. Supernatant was then cultured with CD14-positively selected MHD. Eighteen hours later, MICB and ULBP-1 were measured by qPCR. Values represent induction relative to monocytes cultured in media alone. *P<0.05, **P<0.01.
FIG. 21. Purified native LDH5 or LDH1 was cultured with monocytes from healthy donors. Eighteen hours later, MICB and ULBP-1 were measured by qPCR. Values represent induction relative to monocytes cultured in medium alone. […]

[3] = tested on: glioblastoma cell line U87; experiment: IL-6 gene expression in glioblastoma cell line U87; assay type: cell-based
[4] = tested on: U87; experiment: U87 mitochondrial function and viability after overnight LDH5; assay type: cell-based
Protocol: FIG. 30. U87 mitochondrial function. […] U87 were treated overnight with LDH5 then with controls 100 uM FCCP (depolarizer) or 200 ng/mL staurosporine (hyperpolarizer) for 10 min. Cells were then loaded with the mitochondrial membrane potential sensitive dye Mitotracker CMXRos for 15 min then fixed in 2% PF. Fluorescence intensity was measured by flow cytometry.
FIG. 31. U87 mitochondrial function. […] U87 were treated overnight with LDH5. Cells were fixed in 2% PF and immunostained with an anti-mitochondrial antibody and phalloidin (actin) Mitochondrial and cell surface area were calculated by Nuance software.
FIG. 32. U87 mitochondrial function. […] U87 were treated overnight with LDH5 then with 200 ng/mL staurosporine for 5 or 24 hours. Cells were then trypsinized, stained with Annexin 594 and analyzed by flow cytometry.
Experimental wells were pulsed with 50 ug/mL LDH-A488 for 24 hours as indicated (control wells received no LDH) at 37° C. Cells were treated for 2 min with 0.5M acetic acid+150 mM NaCl (pH 2.5), followed by 4 subsequent washes in RPMI+10% FBS. […] (See FIGS. 31-32).

[5] = LDH activity after freeze/thaw (colorimetric LDH activity assay); assay type: physicochemical; conditions: FIG. 12
Protocol: Supernatants and patient sera were analyzed for LDH enzymatic activity using a commercially available colorimetric assay according to the manufacturer's instructions (Sigma-Aldrich). Standard curves were generated using purified native LDH5.

[6] = 156 U/L enzymatically active LDH5 from human liver, monocytes
[7] = U87 treated overnight with LDH5

LDH5: purified native lactate dehydrogenase isoenzyme 5, alpha only tetramer; fluorescently labeled in uptake tests
Internalization of LDH-5 by tumor cells [1]: internalize | MICB gene expression compared with medium alone [2, 6]: 7.85 fold induction | ULBP-1 gene expression compared with medium alone [2, 6]: 13.26 fold induction | Lowest concentration of purified native LDH5 that induced transcription of MICB and ULBP-1 ([2]; monocytes from healthy donors, 18 h, qPCR, FIG. 2 panel G): 156 U/L | LDH5 concentration that induced a maximal increase in NKG2D ligand transcription ([2]; monocytes, concentrations above this induced less transcription): 625 U/L | IL-6 gene expression [3]: induces IL-6 gene expression | Viability / staurosporine induced apoptosis (Annexin) ([4]; U87 overnight LDH5, then 200 ng/mL staurosporine for 5 or 24 hours): does not reduce viability, nor rescue from staurosporine induced apoptosis | Mitochondrial membrane potential (Mitotracker CMXRos) [4, 7]: depolarizes mitochondrial membrane | Mitochondrial surface area [4, 7]: does not change | LDH-5 activity following freeze/thaw [5]: significantly reduced
